For one experiment, the target named is T1, PI3K alfa (Homo sapiens, UniProt P42336).
T1 construct: His tag (C); made in house; host or cells: baculovirus BV1075; Tn5 (Trichoplusia ni) or TiniPro insect cells
In words: PI3K alpha kinase assay (Kinase-Glo luminescence). Format: biochemical. Particulars: read-out: EPK_PI3Kalfa/IC50. The method, then: (§1) In a more preferred assay, the kinase reaction is performed in a final volume of 10 μL per well of a low volume non binding CORNING, 384 well black plate (Cat. No. #3676). The final concentrations of ATP and phosphatidyl inositol (PI) in the assay are 1 μM and 10 μg/mL respectively. The reaction is started by the addition of ATP.
(§2) The components of the assay are added per well as follows:
(§3) 50 nL test compounds in 90% DMSO per well, in columns 1-20, 8 concentrations (⅓ and 1/3.33 serial dilution step) in single. • Low control: […] of 90% DMSO in half the wells of columns 23-24 (0.45% in final). • High control: 50 nL of reference compound (e.g. compound of Example 7 in WO 2006/122806) in the other half of columns 23-24 (2.5 μM in final). • Standard: 50 nL of reference compound as just mentioned diluted as the test compounds in columns 21-22 • 20 mL ‘buffer’ are prepared per assay: • 200 μL of 1M TRIS HCl pH7.5 (10 mM in final) • 60 μL of 1M MgCl2 (3 mM in final) • 500 μL of 2M NaCl (50 mM in final) • 100 μL of 10% CHAPS (0.05% in final) • 200 μL of 100 mM DTT (1 mM in final) • 18.94 mL of nanopure water • 10 mL ‘PI’ are prepared per assay: • 200 μL of 1 mg/ml L-alpha-Phosphatidylinositol (Liver Bovine, Avanti Polar Lipids Cat. No. 840042C MW=909.12) prepared in 3% OctylGlucoside (10 μg/ml in final) • 9.8 mL of ‘buffer’ • 10 mL ‘ATP’ are prepared per assay: • 6.7 μL of 3 mM stock of ATP giving a final concentration of 1 μM per well • 10 mL of ‘buffer’ • 2.5 mL of each PI3K construct are prepared per assay in ‘PI’ with the following final concentration: • 10 nM PI3K alfa EMV B1075 • 25 nM beta EMV BV949 • 10 nM delta EMV BV1060 • 150 nM gamma EMV BV950 • 5 μL of ‘PI/PI3K’ are added per well. • 5 μl ‘ATP’ are added per well to start the reaction. • The plates are then incubated at room temperature for 60 minutes (alfa, beta, delta) or 120 minutes (gamma). • The reaction is terminated by the addition of 10 μL Kinase-Glo (Promega Cat. No. #6714). • The assay plates are read after 10 minutes in Synergy 2 reader (BioTek, Vermont USA) with an integration time of 100 milliseconds and sensitivity set to 191. • Output: The High control is around 60′000 counts and the Low control is 30′000 or lower • This luminescence assay gives a useful Z′ ratio between 0.4 and 0.7
Two different constructs, BV 1052 and BV 1075, are used to generate the PI3 Kinase α proteins for compound screening.
PI3K alpha is purified in three chromatographic steps: immobilized metal affinity chromatography on a Ni Sepharose resin (GE Healthcare, belonging to General Electric Company, Fairfield, Conn., USA), gel filtration utilizing a Superdex 200 26/60 column (GE Healthcare), and finally a cation exchange step on a SP-XL column (GE Healthcare). All buffers are chilled to 4° C. and lysis is performed chilled on ice. Column fractionation is performed rapidly at room temperature.
(§4) IC50 is determined by a four parameter curve fitting routine that comes along with “excel fit”. A 4 Parameter logistic equation is used to calculate IC50 values (IDBS XLfit) of the percentage inhibition of each compound at 8 concentrations (usually 10, 3.0, 1.0, 0.3, 0.1, 0.030, 0.010 and 0.003 μM). Alternatively, IC50 values are calculated using idbsXLfit model 204, which is a 4 parameter logistic model.

The next experiment has as its target T2, PI3K beta (Homo sapiens, UniProt P42338).
T2 construct: for the full-length p110-b subunit are generated and fused by overlapping PCR; His tag (C); made in house; host or cells: baculovirus BV949; Tn5 (Trichoplusia ni) or TiniPro insect cells
In words: PI3K beta kinase assay (Kinase-Glo luminescence). In kind it is biochemical. Particulars: read-out: EPK_PI3Kbeta/IC50. The method, then:
as §1, §2, §3
PI3Kβ BV-949 p85(iSH2)-Gly linker-r 110b(full-length)-C-term His Tag
PI3K beta is purified in two chromatographic steps: immobilized metal affinity chromatography (IMAC) on a Ni Sepharose resin (GE Healthcare) and gel filtration (GFC) utilizing a Superdex 200 26/60 column (GE Healthcare). All buffers are chilled to 4° C. and lysis is performed chilled on ice. Column fractionation is performed rapidly at room temperature.
as §4
A general note: Kinase-Glo reads ATP consumption through a luciferase reaction.

The next experiment deals with T3, mTOR (Homo sapiens, UniProt P42345).
T3 construct: purchased Invitrogen Corporation (Carlsbad/Calif., USA) PV4753
T3 sequence (P42345 1360-2549 limits assumed): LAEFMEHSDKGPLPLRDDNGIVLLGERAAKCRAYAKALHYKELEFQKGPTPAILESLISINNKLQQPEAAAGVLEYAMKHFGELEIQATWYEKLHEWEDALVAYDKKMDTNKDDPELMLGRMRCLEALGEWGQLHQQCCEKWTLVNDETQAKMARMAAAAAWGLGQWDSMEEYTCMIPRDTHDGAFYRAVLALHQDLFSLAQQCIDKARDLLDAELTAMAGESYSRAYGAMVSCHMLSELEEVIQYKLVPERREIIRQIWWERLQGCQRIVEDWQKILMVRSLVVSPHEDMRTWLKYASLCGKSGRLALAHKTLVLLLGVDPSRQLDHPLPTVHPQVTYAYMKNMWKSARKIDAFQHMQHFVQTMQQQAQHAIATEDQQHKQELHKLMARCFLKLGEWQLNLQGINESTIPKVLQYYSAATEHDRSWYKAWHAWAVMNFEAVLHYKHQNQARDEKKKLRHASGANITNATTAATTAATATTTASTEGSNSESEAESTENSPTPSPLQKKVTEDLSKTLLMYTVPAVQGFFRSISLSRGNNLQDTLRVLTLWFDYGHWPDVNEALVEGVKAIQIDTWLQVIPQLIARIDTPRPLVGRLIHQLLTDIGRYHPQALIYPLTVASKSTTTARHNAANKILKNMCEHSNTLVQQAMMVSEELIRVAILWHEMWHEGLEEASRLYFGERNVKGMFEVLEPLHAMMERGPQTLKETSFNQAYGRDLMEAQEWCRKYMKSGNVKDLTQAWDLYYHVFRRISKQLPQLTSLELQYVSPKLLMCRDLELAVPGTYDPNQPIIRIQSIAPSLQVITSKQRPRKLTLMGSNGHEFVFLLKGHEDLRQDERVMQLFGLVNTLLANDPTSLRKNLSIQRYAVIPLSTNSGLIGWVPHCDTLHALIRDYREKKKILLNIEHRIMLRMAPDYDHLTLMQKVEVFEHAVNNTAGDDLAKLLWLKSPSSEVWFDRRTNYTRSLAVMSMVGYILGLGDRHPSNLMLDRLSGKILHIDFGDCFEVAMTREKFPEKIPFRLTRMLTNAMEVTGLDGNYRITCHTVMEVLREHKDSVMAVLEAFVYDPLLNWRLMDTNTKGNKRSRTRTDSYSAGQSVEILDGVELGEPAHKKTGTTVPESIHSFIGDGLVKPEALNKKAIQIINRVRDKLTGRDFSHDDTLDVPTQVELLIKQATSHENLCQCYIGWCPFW
In words: Biochemical assay for m-TOR by TR-FRET. Particulars: read-out: EPK_mTOR/IC50. The method, then:
Biochemical Assay for m-TOR by TR-FRET.
Assay components are purchased from Invitrogen Corporation (Carlsbad/Calif., USA): GFP-4EBP1 (Cat. No. PV4759), Tb3+-α-p4EBP1 [pThr46] Antibody (Cat. No. PV4757), proprietary TR-FRET dilution buffer (Cat. No. PV3574), mTOR protein (Cat. No. PV4753).
50 nL of compound dilutions (final concentration of 10, 3.0, 1.0, 0.3, 0.1, 0.03, 0.01 and 0.003 μM) are dispensed onto black 384-well low volume non-binding polystyrene (Cat. No. NBS#3676, Corning, Lowell/Mass., USA). Then 5 μL of ATP (8 μM final concentration) and GFP-4EBP1 (400 nM final concentration) with 5 μL mTOR proteins (0.5 nM final concentration) are incubated at rt. The standard reaction buffer for the TR-FRET mTOR assay contained 50 mM HEPES pH 7.5, 10 mM MnCl2, 50 mM NaCl, 1 mM EGTA, 1 mM DTT. Reactions were stopped with 10 μL of a mixture of EDTA containing the Tb3+-α-p4EBP1[pT46] detection Ab (0.5 nM) in TR-FRET dilution buffer (proprietary to IVG). Plates are read 15 mins later in a Synergy2 reader using an integration time of 0.2 seconds and a delay of 0.1 seconds. Control for the 100% inhibition of the kinase reaction is performed by replacing the mTOR kinase by the standard reaction buffer. The control for the 0% inhibition is given by the solvent vehicle of the compounds (90% DMSO in H2O). A standard compound is used as a reference compound and included in all assay plates in the form of 16 dilution points in duplicate.
For orientation: Time-resolved FRET reads energy transfer from a long-lived donor to a nearby acceptor.

In a further experiment the target is T4, PI3K delta (Homo sapiens, UniProt O00329).
T4 construct: for the full-length p110-d subunit are generated and fused by overlapping PCR; His tag (C); made in house; host or cells: baculovirus BV1060; Tn5 (Trichoplusia ni) or TiniPro insect cells
T4 sequence (O00329 with tags, fused parts or gaps limits assumed): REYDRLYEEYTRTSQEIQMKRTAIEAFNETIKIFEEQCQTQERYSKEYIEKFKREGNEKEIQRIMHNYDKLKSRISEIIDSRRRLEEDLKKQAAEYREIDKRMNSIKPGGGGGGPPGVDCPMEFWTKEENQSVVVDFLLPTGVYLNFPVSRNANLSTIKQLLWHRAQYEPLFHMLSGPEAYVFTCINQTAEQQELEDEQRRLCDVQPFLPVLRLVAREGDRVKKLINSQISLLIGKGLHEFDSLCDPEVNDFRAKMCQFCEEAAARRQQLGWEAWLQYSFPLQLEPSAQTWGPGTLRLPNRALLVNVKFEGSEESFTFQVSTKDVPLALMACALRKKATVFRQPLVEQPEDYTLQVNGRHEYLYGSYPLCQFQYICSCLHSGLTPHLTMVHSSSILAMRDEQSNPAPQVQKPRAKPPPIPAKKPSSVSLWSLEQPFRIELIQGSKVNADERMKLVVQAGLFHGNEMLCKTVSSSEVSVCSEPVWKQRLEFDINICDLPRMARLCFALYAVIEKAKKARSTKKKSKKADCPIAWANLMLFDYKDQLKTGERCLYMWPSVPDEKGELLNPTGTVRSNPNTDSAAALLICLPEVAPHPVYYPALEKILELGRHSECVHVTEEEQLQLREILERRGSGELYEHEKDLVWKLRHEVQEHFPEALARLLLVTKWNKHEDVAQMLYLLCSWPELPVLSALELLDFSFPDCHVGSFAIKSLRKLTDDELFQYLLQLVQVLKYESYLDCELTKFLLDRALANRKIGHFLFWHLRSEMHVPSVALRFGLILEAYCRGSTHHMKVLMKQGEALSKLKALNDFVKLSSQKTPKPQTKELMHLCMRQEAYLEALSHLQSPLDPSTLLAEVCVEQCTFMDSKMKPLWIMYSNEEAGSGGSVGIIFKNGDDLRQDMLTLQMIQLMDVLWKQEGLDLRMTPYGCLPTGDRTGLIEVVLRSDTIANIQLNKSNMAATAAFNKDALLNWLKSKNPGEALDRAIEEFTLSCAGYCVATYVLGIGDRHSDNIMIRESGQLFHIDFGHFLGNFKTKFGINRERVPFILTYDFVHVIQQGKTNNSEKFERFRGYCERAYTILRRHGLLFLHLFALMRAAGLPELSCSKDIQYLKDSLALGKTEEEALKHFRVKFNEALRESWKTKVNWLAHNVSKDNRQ
In words: PI3K delta kinase assay (Kinase-Glo luminescence). Format: biochemical. The note with it: read-out: EPK_PI3Kdelta/IC50. The protocol: as §1, §2, §3
PI3Kδ BV-1060 p85(iSH2)-Gly Linker-p110d(Full-Length)-C-Term His Tag
PI3K delta is purified in three chromatographic steps: immobilized metal affinity chromatography on a Ni Sepharose resin (GE Healthcare), gel filtration utilizing a Superdex 200 26/60 column (GE Healthcare), and finally a anion exchange step on a Q-HP column (GE Healthcare). All buffers are chilled to 4° C. and lysis is performed chilled on ice. Column fractionation is performed rapidly at room temperature. Typically frozen insect cells are lysed in a hypertonic lysis buffer and applied to a prepared IMAC column. The resin is washed with 3-5 column volumes of lysis buffer, followed by 3-5 column volumes wash buffer containing 45 mM imidazole, and the target protein is then eluted with a buffer containing 250 mM imidazole. Fractions are analyzed by Coomassie stained SDS-PAGE gels, and fractions containing the target protein are pooled and applied to a prepared GFC column. Fractions from the GFC column are analyzed by Coomassie stained SDS-PAGE gels, and fractions containing the target protein are pooled. The pool from the GFC column is diluted into a low salt buffer and applied to a prepared Q-HP column. The column is washed with low salt buffer until a stable A280 baseline absorbance is achieved, and eluted using a 20 column volume gradient from 0 mM NaCl to 500 mM NaCl. Again, fractions from the Q-HP column are analyzed by Coomassie stained SDS-PAGE gels, and fractions containing the target protein are pooled. The final pool is dialyzed into a storage buffer containing 50% glycerol and stored at −20° C. The final pool is assayed for activity in the phosphoinostitol kinase assay. […]

Structures are written as SMILES.

T1 sequence (P42336 with tags, fused parts or gaps limits assumed): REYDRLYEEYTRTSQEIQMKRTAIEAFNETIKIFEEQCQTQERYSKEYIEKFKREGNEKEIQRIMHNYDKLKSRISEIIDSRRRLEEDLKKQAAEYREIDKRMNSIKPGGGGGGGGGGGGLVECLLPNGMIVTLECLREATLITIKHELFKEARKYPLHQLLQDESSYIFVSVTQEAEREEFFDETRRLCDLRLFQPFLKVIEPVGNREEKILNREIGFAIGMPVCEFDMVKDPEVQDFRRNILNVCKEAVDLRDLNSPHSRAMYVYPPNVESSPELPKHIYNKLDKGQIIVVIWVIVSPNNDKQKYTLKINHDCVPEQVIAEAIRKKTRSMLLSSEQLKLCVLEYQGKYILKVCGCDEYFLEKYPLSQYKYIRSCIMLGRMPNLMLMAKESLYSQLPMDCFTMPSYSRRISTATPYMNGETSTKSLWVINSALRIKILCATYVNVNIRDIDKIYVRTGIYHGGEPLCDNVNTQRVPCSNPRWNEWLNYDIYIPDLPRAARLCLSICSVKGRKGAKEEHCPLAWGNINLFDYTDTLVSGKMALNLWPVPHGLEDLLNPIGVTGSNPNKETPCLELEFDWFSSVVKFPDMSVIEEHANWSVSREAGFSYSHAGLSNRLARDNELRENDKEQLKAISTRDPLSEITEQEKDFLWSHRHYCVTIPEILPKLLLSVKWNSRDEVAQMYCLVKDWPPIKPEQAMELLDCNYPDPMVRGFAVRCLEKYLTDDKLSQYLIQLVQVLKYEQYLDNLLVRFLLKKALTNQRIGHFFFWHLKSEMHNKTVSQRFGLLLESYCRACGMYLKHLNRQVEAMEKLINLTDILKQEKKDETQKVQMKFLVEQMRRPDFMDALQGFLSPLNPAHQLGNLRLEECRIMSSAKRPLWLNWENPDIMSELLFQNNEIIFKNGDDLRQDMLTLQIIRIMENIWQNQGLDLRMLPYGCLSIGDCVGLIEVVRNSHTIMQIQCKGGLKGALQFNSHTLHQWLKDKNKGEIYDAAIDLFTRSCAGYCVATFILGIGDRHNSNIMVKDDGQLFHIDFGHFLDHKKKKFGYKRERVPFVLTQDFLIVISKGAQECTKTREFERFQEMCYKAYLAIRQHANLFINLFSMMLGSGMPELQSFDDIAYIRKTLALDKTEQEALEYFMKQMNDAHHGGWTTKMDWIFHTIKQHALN
T2 sequence (P42338 with tags, fused parts or gaps limits assumed): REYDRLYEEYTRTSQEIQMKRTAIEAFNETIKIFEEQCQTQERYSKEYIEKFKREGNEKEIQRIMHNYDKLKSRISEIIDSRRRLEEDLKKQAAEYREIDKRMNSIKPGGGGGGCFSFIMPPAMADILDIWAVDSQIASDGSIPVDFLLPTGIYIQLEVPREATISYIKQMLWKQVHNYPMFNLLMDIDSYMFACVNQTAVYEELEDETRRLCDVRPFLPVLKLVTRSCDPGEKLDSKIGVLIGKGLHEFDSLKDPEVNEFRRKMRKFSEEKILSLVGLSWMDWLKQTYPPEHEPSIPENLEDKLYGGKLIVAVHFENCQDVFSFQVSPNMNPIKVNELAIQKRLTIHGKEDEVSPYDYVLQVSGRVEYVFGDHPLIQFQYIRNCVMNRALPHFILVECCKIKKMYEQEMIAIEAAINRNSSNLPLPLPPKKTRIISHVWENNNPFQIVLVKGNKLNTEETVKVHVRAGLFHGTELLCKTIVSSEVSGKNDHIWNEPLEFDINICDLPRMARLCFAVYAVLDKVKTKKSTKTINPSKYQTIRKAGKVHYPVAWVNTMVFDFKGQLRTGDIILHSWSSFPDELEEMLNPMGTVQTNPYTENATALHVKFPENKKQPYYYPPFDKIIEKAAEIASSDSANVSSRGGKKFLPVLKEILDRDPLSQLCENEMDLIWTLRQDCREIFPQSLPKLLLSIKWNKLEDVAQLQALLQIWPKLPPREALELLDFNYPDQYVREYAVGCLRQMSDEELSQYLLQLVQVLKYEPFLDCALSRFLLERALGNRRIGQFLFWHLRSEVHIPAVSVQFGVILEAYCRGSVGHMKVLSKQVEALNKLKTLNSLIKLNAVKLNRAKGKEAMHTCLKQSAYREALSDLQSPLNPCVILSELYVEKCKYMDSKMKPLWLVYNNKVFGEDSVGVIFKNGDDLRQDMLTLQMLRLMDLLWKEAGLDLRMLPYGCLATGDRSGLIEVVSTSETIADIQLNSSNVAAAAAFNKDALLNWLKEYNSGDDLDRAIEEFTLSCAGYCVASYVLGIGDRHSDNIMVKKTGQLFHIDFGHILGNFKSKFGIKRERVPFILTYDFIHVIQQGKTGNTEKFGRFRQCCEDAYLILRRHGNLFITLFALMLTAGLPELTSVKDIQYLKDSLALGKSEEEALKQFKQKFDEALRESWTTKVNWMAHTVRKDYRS

For `CCNc1ncc(-c2ccc3ncc4c(c3c2)n(-c2ccc(F)nc2C)c(=O)n4C)cn1` [Example 7.18, 8-(2-Ethylamino-pyrimidin-5-yl)-1-(6-fluoro-2-methyl-pyridin-3-yl)-3-methyl-1,3-dihydro-imidazo[4,5-c]quinolin-2-one], the IC50 on PI3K alfa was 0.065 µM; on PI3K beta, 0.321 µM; on mTOR it was 0.036 µM; at PI3K delta it was 0.028 µM.

As for `CCNc1ncc(-c2ccc3ncc4c(c3c2)n(-c2ccc(N3CC(O)C3)nc2C)c(=O)n4C)cn1` [Example 29.7, 8-(2-Ethylamino-pyrimidin-5-yl)-1-[6-(3-hydroxy-azetidin-1-yl)-2-methyl-pyridin-3-yl]-3-methyl-1,3-dihydro-imidazo[4,5-c]quinolin-2-one], the IC50 on PI3K alfa is 0.049 µM; on PI3K beta, 0.339 µM; on mTOR, 0.008 µM; at PI3K delta, 0.024 µM.

On to `CNc1ncc(-c2ccc3ncc4c(c3c2)n(-c2ccc(C(C)(C)O)nc2C)c(=O)n4C)cn1` [Example 31.2, 1-[6-(1-Hydroxy-1-methyl-ethyl)-2-methyl-pyridin-3-yl]-3-methyl-8-(2-methylamino-pyrimidin-5-yl)-1,3-dihydro-imidazo[4,5-c]quinolin-2-one], for which the IC50 at PI3K alfa came to 0.026 µM; on PI3K beta, 0.105 µM; at mTOR, 0.006 µM; on PI3K delta it was 0.011 µM.

`CCNc1ncc(-c2ccc3ncc4c(c3c2)n(-c2ccc(N3CC[C@H](O)C3)nc2C)c(=O)n4C)c(OC)n1` [Example 32.9, 8-(2-Ethylamino-4-methoxy-pyrimidin-5-yl)-1-[6-((S)-3-hydroxy-pyrrolidin-1-yl)-2-methyl-pyridin-3-yl]-3-methyl-1,3-dihydro-imidazo[4,5-c]quinolin-2-one]: the IC50 on PI3K alfa was 0.027 µM; at PI3K beta it was 0.385 µM; at mTOR, 0.021 µM; at PI3K delta, 0.021 µM.

Consider `CCNc1ncc(-c2ccc3ncc4c(c3c2)n(-c2ccc(N3CC[C@H](O)C3)nc2C)c(=O)n4C)cn1` [Example 32.10, 8-(2-Ethylamino-pyrimidin-5-yl)-1-[6-((S)-3-hydroxy-pyrrolidin-1-yl)-2-methyl-pyridin-3-yl]-3-methyl-1,3-dihydro-imidazo[4,5-c]quinolin-2-one], for which the IC50 at PI3K alfa is 0.044 µM; on PI3K beta, 0.401 µM; on mTOR it was 0.015 µM; at PI3K delta it was 0.02 µM.

As to `COCc1cc(-c2ccc3ncc4c(c3c2)n(-c2ccc(C(F)(F)F)nc2C)c(=O)n4C)cnc1N` [Example 33.3, 8-(6-Amino-5-methoxymethyl-pyridin-3-yl)-3-methyl-1-(2-methyl-6-trifluoromethyl-pyridin-3-yl)-1,3-dihydro-imidazo[4,5-c]quinolin-2-one], the IC50 at PI3K alfa came to 0.012 µM; at PI3K beta, 0.022 µM; on mTOR, 0.06 µM; at PI3K delta it was 0.007 µM.

Consider `Cc1nc(C(F)(F)F)ccc1-n1c(=O)n(C)c2cnc3ccc(-c4cnc(N)c(CO)c4)cc3c21` [Example 33.5, 8-(6-Amino-5-hydroxymethyl-pyridin-3-yl)-3-methyl-1-(2-methyl-6-trifluoromethyl-pyridin-3-yl)-1,3-dihydro-imidazo[4,5-c]quinolin-2-one], for which the IC50 on PI3K alfa amounted to 0.041 µM; on PI3K beta, 0.056 µM; at mTOR, 0.036 µM; at PI3K delta, 0.025 µM.

Turning to `CNc1ncc(-c2ccc3ncc4c(c3c2)n(-c2ccc(C(F)(F)F)nc2C)c(=O)n4C)cc1COC` [Example 33.6, 8-(5-Methoxymethyl-6-methylamino-pyridin-3-yl)-3-methyl-1-(2-methyl-6-trifluoromethyl-pyridin-3-yl)-1,3-dihydro-imidazo[4,5-c]quinolin-2-one], the IC50 on PI3K alfa was 0.027 µM; on PI3K beta, 0.062 µM; at mTOR, 0.07 µM; on PI3K delta, 0.01 µM.

Values taken from patent US20100311714A1, “1H-IMIDAZO[4,5-c]QUINOLINONE COMPOUNDS” (priority 2009, published 2010).
